Experiments:
5HT-Transporter = molecular target: T1, 5HT-Transporter (Homo sapiens, UniProt P31645); assay: Binding experiment for the 5HT-transporter ([3H]paroxetine, human platelet membranes); details: [3H]paroxetine 0.5 nM, read-out: h-5HTT pIC50 (converted)
T1 construct: Human platelet membranes (Oceanix Biosciences Corporation, Hanover, Md., USA) were thawed; tissue Oceanix Biosciences Corporation, Hanover, Md., USA; host or cells: human platelet membranes
Summary of the method: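 Filter-bound radioactivity from human platelet membranes incubated with [3H]paroxetine and test compound (buffer Tris-HCl 50 mM, 120 mM NaCl, 5 mM KCl) was counted.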

hα2C receptor = molecular target: T2, hα2C receptor (Homo sapiens, UniProt P18825); assay: Radioligand binding experiment for α2C-adrenoceptor ([3H]raulwolscine, CHO cell membranes); details: [3H]raulwolscine binding, read-out: h-α2C pIC50 (converted)
T2 construct: expressed in transfected cells; host or cells: CHO cells, stably transfected; membrane preparation
T2 sequence (P18825 1-462): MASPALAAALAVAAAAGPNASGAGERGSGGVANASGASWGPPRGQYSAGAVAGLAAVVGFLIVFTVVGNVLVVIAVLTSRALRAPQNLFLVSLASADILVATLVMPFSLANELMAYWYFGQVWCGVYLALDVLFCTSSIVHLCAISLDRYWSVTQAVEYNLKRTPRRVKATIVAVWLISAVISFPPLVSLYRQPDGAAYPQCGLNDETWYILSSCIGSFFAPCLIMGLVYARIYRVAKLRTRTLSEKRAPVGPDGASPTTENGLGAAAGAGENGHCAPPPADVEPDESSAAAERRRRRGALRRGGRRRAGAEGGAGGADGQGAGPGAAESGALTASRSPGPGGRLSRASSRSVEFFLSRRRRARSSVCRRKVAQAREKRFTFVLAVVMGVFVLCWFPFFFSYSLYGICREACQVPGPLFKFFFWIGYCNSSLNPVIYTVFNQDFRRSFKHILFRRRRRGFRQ

hα2A receptor = molecular target: T3, hα2A receptor (Homo sapiens, UniProt P08913); assay: Radioligand binding experiment for α2A-adrenoceptor ([3H]raulwolscine, CHO cell membranes); details: [3H]raulwolscine binding, read-out: h-α2A pIC50 (converted)
T3 construct: expressed in transfected cells; host or cells: CHO cells, stably transfected; membrane preparation
T3 sequence (P08913 1-465): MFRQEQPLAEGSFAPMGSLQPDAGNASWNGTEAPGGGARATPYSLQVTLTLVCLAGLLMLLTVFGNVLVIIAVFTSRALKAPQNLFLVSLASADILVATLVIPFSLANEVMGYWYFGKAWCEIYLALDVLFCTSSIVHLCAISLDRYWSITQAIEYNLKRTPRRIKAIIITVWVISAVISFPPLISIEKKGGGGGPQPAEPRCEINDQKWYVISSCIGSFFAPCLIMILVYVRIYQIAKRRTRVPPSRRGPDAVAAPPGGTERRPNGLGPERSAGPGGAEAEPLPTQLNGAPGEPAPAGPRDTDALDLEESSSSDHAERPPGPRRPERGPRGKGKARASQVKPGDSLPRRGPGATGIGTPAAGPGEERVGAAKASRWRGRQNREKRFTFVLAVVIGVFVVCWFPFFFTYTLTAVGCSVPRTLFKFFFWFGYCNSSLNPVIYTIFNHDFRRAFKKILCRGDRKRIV

T1 sequence (P31645 whole entry): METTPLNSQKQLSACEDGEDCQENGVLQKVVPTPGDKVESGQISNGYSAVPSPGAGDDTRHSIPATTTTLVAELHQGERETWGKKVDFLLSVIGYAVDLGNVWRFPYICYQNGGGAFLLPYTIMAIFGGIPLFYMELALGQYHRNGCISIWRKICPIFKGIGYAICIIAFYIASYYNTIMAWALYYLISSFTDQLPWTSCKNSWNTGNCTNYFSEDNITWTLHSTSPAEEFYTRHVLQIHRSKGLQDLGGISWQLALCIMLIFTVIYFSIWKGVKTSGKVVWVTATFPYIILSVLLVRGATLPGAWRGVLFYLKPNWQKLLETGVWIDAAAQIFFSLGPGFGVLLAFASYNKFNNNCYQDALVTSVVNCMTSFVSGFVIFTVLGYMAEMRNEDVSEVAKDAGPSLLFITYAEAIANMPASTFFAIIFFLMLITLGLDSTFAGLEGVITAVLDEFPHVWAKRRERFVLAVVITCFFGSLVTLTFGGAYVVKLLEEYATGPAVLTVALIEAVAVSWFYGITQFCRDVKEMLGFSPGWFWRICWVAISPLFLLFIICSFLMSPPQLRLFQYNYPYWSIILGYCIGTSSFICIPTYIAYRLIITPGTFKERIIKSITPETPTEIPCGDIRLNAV

Row | Compound | IC50 (5HT-Transporter) | IC50 (hα2C receptor) | IC50 (hα2A receptor)
1 | C/C(=C\c1ccccc1)CN1CCC(Nc2nccn(-c3cccnc3)c2=O)CC1 [6-11] | 3980 nM | 25.1 nM | 251 nM
2 | C/C(=C\c1ccccc1)CN1CCC(Nc2nccn(-c3ccncc3)c2=O)CC1 [6-12] | 1580 nM | 7.94 nM | 50.1 nM
3 | C/C(=C\c1ccccc1)CN1CCC(Nc2nccn(Cc3ccccn3)c2=O)CC1 [6-13] | 3980 nM | 31.6 nM | 200 nM
4 | C/C(=C\c1ccccc1)CN1CCC(Nc2nccn(Cc3ccncc3)c2=O)CC1 [6-14] | 2510 nM | 39.8 nM | 158 nM
5 | C/C(=C\c1ccccc1)CN1CCC(Nc2nccn(CC(=O)c3ccc4c(c3)NC(=O)CO4)c2=O)CC1 [6-15] | 1000 nM | 20 nM | 15.8 nM
6 | C/C(=C\c1ccccc1)CN1CCC(Nc2nccn(-c3cnc4ccccc4c3)c2=O)CC1 [6-16] | 316 nM | 15.8 nM | 63.1 nM
7 | C/C(=C\c1ccccc1)CN1CCC(Nc2nccn(Cc3ccc4ccccc4n3)c2=O)CC1 [6-17] | 316 nM | 15.8 nM | 79.4 nM
8 | CCn1ccnc(NC2CCN(C/C(C)=C/c3ccccc3)CC2)c1=O [7-3] | 3980 nM | 15.8 nM | 63.1 nM
9 | CCCn1ccnc(NC2CCN(C/C(C)=C/c3ccccc3)CC2)c1=O [7-4] | 631 nM | 12.6 nM | 25.1 nM
10 | CCCCCn1ccnc(NC2CCN(C/C(C)=C/c3ccccc3)CC2)c1=O [7-5] | 251 nM | 31.6 nM | 100 nM
11 | C/C(=C\c1ccccc1)CN1CCC(Nc2nccn(CC3CCCCC3)c2=O)CC1 [7-6] | 1580 nM | 50.1 nM | 200 nM
12 | C/C(=C\c1ccccc1)CN1CCC(Nc2nccn(CC(=O)C(C)(C)C)c2=O)CC1 [7-8] | > 10000 nM | 12.6 nM | 126 nM
13 | C/C(=C\c1ccccc1)CN1CCC(Nc2nccn(CC(=O)C(C)(C)C)c2=O)CC1 [7-9] | 5010 nM | 7.94 nM | 79.4 nM
14 | C/C(=C\c1ccccc1)CN1CCC(Nc2nccn(CC(=O)C34CC5CC(CC(C5)C3)C4)c2=O)CC1 [7-10] | 1260 nM | 10 nM | 50.1 nM
15 | C/C(=C\c1ccccc1)CN1CCN(c2nccn(Cc3ccc(CN)cc3)c2=O)CC1 [8-1] | 1000 nM | 12.6 nM | 39.8 nM
16 | C/C(=C\c1ccccc1)CN1CCN(c2nccn(CC(=O)N(C)C)c2=O)CC1 [8-2] | > 10000 nM | 158 nM | 1580 nM
17 | C/C(=C\c1ccccc1)CN1CCN(c2nccn(CCCNC(=O)OC(C)(C)C)c2=O)CC1 [8-3] | 2510 nM | 79.4 nM | 398 nM
18 | C/C(=C\c1ccccc1)CN1CCN(c2nccn(Cc3ccc(CNC(=O)OC(C)(C)C)cc3)c2=O)CC1 [8-4] | 1260 nM | 79.4 nM | 158 nM
19 | C/C(=C\c1ccccc1)CN1CCN(c2nccn(CCN3CCOCC3)c2=O)CC1 [9-2] | 7940 nM | 200 nM | 1000 nM
20 | COCCCn1ccnc(N2CCN(C/C(C)=C/c3ccccc3)CC2)c1=O [10-1] | 7940 nM | 79.4 nM | 316 nM
21 | C/C(=C\c1ccccc1)CN1CCN(c2nccn(CCOc3ccccc3)c2=O)CC1 [10-2] | 1260 nM | 100 nM | 251 nM
22 | C/C(=C\c1ccccc1)CN1CCN(c2nccn(CCOCc3ccccc3)c2=O)CC1 [10-3] | 1260 nM | 79.4 nM | 398 nM
23 | CSCCn1ccnc(N2CCN(C/C(C)=C/c3ccccc3)CC2)c1=O [11-1] | 6310 nM | 79.4 nM | 316 nM
24 | C/C(=C\c1ccccc1)CN1CCC(N(C)c2nccn(Cc3ccc(CN)cc3)c2=O)CC1 [15-1] | 501 nM | 10 nM | 25.1 nM
25 | C/C(=C\c1ccccc1)CN1CCC(N(C)c2nccn(Cc3ccc(CN(C)C)cc3)c2=O)CC1 [15-2] | 1000 nM | 3.16 nM | 31.6 nM
26 | C/C(=C\c1ccccc1)CN1CCC(N(C)c2nccn(CCN3CCCCC3)c2=O)CC1 [15-3] | 5010 nM | 20 nM | 100 nM
27 | C/C(=C\c1ccccc1)CN1CCC(N(C)c2nccn(CCCO)c2=O)CC1 [15-4] | 2510 nM | 39.8 nM | 63.1 nM
28 | COCCOCCn1ccnc(N(C)C2CCN(C/C(C)=C/c3ccccc3)CC2)c1=O [15-5] | 2000 nM | 39.8 nM | 126 nM
29 | C/C(=C\c1ccccc1)CN1CCC(N(C)c2nccn(CC3CCCCO3)c2=O)CC1 (stereo not drawn) [15-7] | 3160 nM | 39.8 nM | 79.4 nM

Now from value to compound:

Row | IC50 (5HT-Transporter) | IC50 (hα2C receptor) | IC50 (hα2A receptor) | Compound
30 | 3160 nM | 63.1 nM | 63.1 nM | C/C(=C\c1ccccc1)CN1CCN(c2nccn(Cc3ccccc3)c2=O)CC1 [12-1]
31 | 1260 nM | 63.1 nM | 200 nM | C/C(=C\c1ccccc1)CN1CCN(c2nccn(CCCc3ccccc3)c2=O)CC1 [12-2]
32 | 1260 nM | 126 nM | 398 nM | C/C(=C\c1ccccc1)CN1CCN(c2nccn(C/C=C/c3ccccc3)c2=O)CC1 [12-3]
33 | 3980 nM | 50.1 nM | 316 nM | C/C(=C\c1ccccc1)CN1CCN(c2nccn(CC(=O)c3ccccc3)c2=O)CC1 [12-5]
34 | 2000 nM | 251 nM | 398 nM | C/C(=C\c1ccccc1)CN1CCN(c2nccn(CC(=O)c3ccc(-c4ccccc4)cc3)c2=O)CC1 [12-6]
35 | 1000 nM | 126 nM | 126 nM | C/C(=C\c1ccccc1)CN1CCN(c2nccn(Cc3ccc4ccccc4c3)c2=O)CC1 [12-7]
36 | 6310 nM | 63.1 nM | 50.1 nM | C/C(=C\c1ccccc1)CN1CCN(c2nccn(Cc3ccco3)c2=O)CC1 [13-1]
37 | 3980 nM | 39.8 nM | 79.4 nM | C/C(=C\c1ccccc1)CN1CCN(c2nccn(Cc3ccc(Cl)s3)c2=O)CC1 [13-2]
38 | 6310 nM | 79.4 nM | 316 nM | C/C(=C\c1ccccc1)CN1CCN(c2nccn(Cc3csc(C)n3)c2=O)CC1 [13-3]
39 | 398 nM | 63.1 nM | 63.1 nM | COc1ccc(-c2nnc(Cn3ccnc(N4CCN(C/C(C)=C/c5ccccc5)CC4)c3=O)o2)cc1 [13-4]
40 | 3980 nM | 39.8 nM | 158 nM | C/C(=C\c1ccccc1)CN1CCN(c2ncc[nH]c2=O)CC1 [14-1]
41 | 6310 nM | 50.1 nM | 126 nM | CCCn1ccnc(N2CCN(C/C(C)=C/c3ccccc3)CC2)c1=O [14-2]
42 | 7940 nM | 158 nM | 398 nM | C/C(=C\c1ccccc1)CN1CCN(c2nccn(CC3CCCCC3)c2=O)CC1 [14-3]
43 | > 10000 nM | 63.1 nM | 398 nM | C/C(=C\c1ccccc1)CN1CCN(c2nccn(CC(=O)C(C)(C)C)c2=O)CC1 [14-4]
44 | > 10000 nM | 158 nM | 1580 nM | CN(C)CCn1ccnc(NC2CCN(C/C=C/c3ccccc3)CC2)c1=O [16-1]
45 | > 10000 nM | 316 nM | 2510 nM | CN(C)C(=O)Cn1ccnc(NC2CCN(C/C=C/c3ccccc3)CC2)c1=O [16-3]
46 | 1260 nM | 39.8 nM | 398 nM | CC(C)(C)OC(=O)NCCCn1ccnc(NC2CCN(C/C=C/c3ccccc3)CC2)c1=O [16-4]
47 | 1260 nM | 398 nM | 794 nM | CC(C)(C)OC(=O)NCc1ccc(Cn2ccnc(NC3CCN(C/C=C/c4ccccc4)CC3)c2=O)cc1 [16-5]
48 | > 10000 nM | 63.1 nM | 794 nM | O=c1c(NC2CCN(C/C=C/c3ccccc3)CC2)nccn1CCN1CCCCC1 [16-6]
49 | > 10000 nM | 398 nM | 3980 nM | O=c1c(NC2CCN(C/C=C/c3ccccc3)CC2)nccn1CCN1CCOCC1 [16-7]
50 | 200 nM | 12.6 nM | 501 nM | O=C1c2ccccc2C(=O)N1CCCn1ccnc(NC2CCN(C/C=C/c3ccccc3)CC2)c1=O [16-8]
51 | > 10000 nM | 631 nM | 3160 nM | COCCn1ccnc(NC2CCN(C/C=C/c3ccccc3)CC2)c1=O [16-9]
